Data as given in article PMC4406878 (Pharmaceutical research, 2011).

System: PSMA
Conditions: 2 nM DHT, 48 h, 5% charcoal-stripped FBS RPMI-1640, Western blot

SMILES: C[C@]12CCC(=O)C[C@@H]1CC[C@@H]1[C@@H]2CC[C@]2(C)[C@@H](O)CC[C@@H]12 [DHT, 5-α-dihydrotestosterone]
- PSMA expression in LNCaP cells: substantially inhibited
